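All cell lines were grown in 96-well plates and treated with compound for 48 hours. Definition used: TGI = concentration required for complete inhibition of growth.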
Experiments:
Assay in all cases: NCI-60 cell line screen, 48 h
HT29 colon = test system: HT29 colon
DU-145 prostate = test system: DU-145 prostate
NCI-H226 lung = test system: NCI-H226 lung
SK-MEL-5 melanoma = test system: SK-MEL-5 melanoma
SF-268 CNS = test system: SF-268 CNS
UACC-257 melanoma = test system: UACC-257 melanoma
HCT-116 colon = test system: HCT-116 colon
HS 578T breast = test system: HS 578T breast
HCT-15 colon = test system: HCT-15 colon
SNB-75 CNS = test system: SNB-75 CNS
COLO 205 colon = test system: COLO 205 colon
MDA-MB-231 breast = test system: MDA-MB-231 breast

Row | SMILES | TGI (HT29 colon) [µM] | TGI (DU-145 prostate) [µM] | TGI (NCI-H226 lung) [µM] | TGI (SK-MEL-5 melanoma) [µM] | TGI (SF-268 CNS) [µM] | TGI (UACC-257 melanoma) [µM] | TGI (HCT-116 colon) [µM] | TGI (HS 578T breast) [µM] | TGI (HCT-15 colon) [µM] | TGI (SNB-75 CNS) [µM] | TGI (COLO 205 colon) [µM] | TGI (MDA-MB-231 breast) [µM]
1 | CCOC(=O)N1CCN(c2ccc3c(C)cc(C)nc3n2)CC1 | > 100 | > 100 | > 100 | > 100 | > 100 | > 100 | > 100 | > 100 | > 100 | > 100 | > 100 | > 100
2 | CC(C)[C@@H]1CC[C@@H](C)C[C@H]1OC(=O)/C=C1/C2C=CC(O2)C1C(=O)O[C@@H]1C[C@H](C)CC[C@H]1C(C)C (stereo partly drawn) | > 100 | > 100 | > 100 | > 100 | > 100 | > 100 | > 100 | > 100 | > 100 | > 100 | > 100 | > 100
3 | COc1ccccc1C1SCC(=O)N1c1ccc(-c2ccc(-n3c(-c4ccccc4)nc4ccccc4c3=O)cc2)cc1 (stereo not drawn) | > 100 | > 100 | > 100 | > 100 | > 100 | > 100 | > 100 | > 100 | > 100 | > 100 | > 100 | > 100
4 | O=C1C(NCCc2ccc(O)c(O)c2)=CC(=O)c2ncccc21 | > 93.3 | 24 | 30.5 | 15.4 | 66.5 | 24.8 | 29 | 45.2 | 55.7 | 29.4 | 28 | 16.1
5 | O=C1C(F)=CC(COC(c2ccccc2)(c2ccccc2)c2ccccc2)OC1n1cc(F)c(=O)[nH]c1=O (stereo not drawn) | 1.59 | > 34.2 | 5.51 | 3.22 | 12.6 | 4.72 | 10.9 | > 45 | 5.95 | 10.9 | > 21.5 | 18.5
6 | Cc1cc(CNC(=O)OCc2ccccc2)c(C)c2c1Oc1ccccc1O2 | > 68.8 | > 100 | > 93.6 | > 100 | > 74.3 | > 100 | > 100 | 53.6 | > 100 | 36.3 | > 100 | > 60.5
7 | Cc1ccc(N=Nc2c(O)ccc3cc(S(=O)(=O)O)ccc23)c(C)c1 | > 100 | > 100 | > 100 | > 100 | > 100 | > 100 | > 100 | > 100 | > 100 | > 100 | > 100 | > 100
8 | COC(=O)C(C)(N=Cc1ccccc1)c1ccccc1 (stereo not drawn) | > 100 | > 100 | > 100 | > 100 | > 100 | > 100 | > 100 | > 100 | > 100 | > 100 | > 100 | > 100
9 | FC(F)(F)c1ccccc1N1CCN(c2nc(-c3cccs3)nc3ccc(Br)cc23)CC1 | > 100 | > 100 | > 100 | 30.9 | > 100 | > 100 | > 100 | > 100 | > 100 | > 100 | 65.1 | 74
10 | NC(=Nc1ccc(O)cc1)S(=O)(=O)O | > 100 | > 100 | > 100 | > 100 | > 100 | > 100 | > 100 | > 100 | > 100 | > 100 | > 100 | > 100
11 | Clc1ccc(Cc2nc3ccc(CCN4CCN(c5ccccc5)CC4)cc3[nH]2)cc1 | 22.5 | 44 | 51.3 | 25.3 | > 100 | 18.8 | 24.6 | 47.3 | 39.8 | 38.3 | 15.3 | 27.3
12 | COc1ccc(S(=O)(=O)O)cc1-n1nc(C(=O)Nc2ccccc2)n[n+]1-c1cc(S(=O)(=O)[O-])ccc1OC | > 100 | > 100 | > 100 | > 100 | > 100 | – | > 100 | > 100 | > 100 | > 100 | > 100 | > 100
13 | O=C(NCCC(F)(F)C(F)(F)C(F)(F)C(F)(F)F)NC1OC(CO)C(O)C(O)C1O (stereo not drawn) | > 100 | > 100 | – | > 100 | > 100 | > 100 | > 100 | > 100 | > 100 | > 100 | > 100 | > 100
14 | CNc1ccc(-c2nc3cc(C)ccc3o2)cc1 | > 100 | > 100 | > 100 | > 100 | > 100 | > 100 | > 100 | > 100 | > 100 | 33.7 | > 100 | > 100
15 | O=C1NC(N/N=C\C(O)C(O)C(O)CO)=N/C1=C/c1ccc(Cl)cc1 (stereo not drawn) | > 100 | > 100 | > 100 | > 100 | > 100 | > 100 | > 100 | > 100 | 52.8 | > 100 | > 100 | > 100
16 | CCCCCC(=O)N[C@@H](c1ccccc1)C(O)C(=O)OC1C[C@@]2(O)C(OC(=O)c3ccccc3)C3[C@](C)(C(=O)[C@H](O)C(=C1C)C2(C)C)C(OC1OCC(O)C(O)C1O)C[C@H]1OC[C@@]31OC(C)=O (stereo partly drawn) | > 36.8 | 13.4 | > 100 | > 100 | > 100 | > 100 | > 100 | 8.23 | > 100 | 4.52 | 8.15 | > 100
17 | CCOC(=O)/C(=C\c1ccc(N(C)C)cc1)S(=O)(=O)C(F)(F)C(F)(F)C(F)(F)C(F)(F)F | > 100 | > 100 | > 100 | > 100 | > 100 | > 100 | > 100 | > 100 | > 100 | > 100 | > 100 | > 100
18 | O=C(/C=C/c1ccsc1)c1ccco1 | 22.8 | 26.4 | > 63.6 | 29.7 | 38.5 | 38.6 | 16.6 | 29.6 | 20.1 | 26 | 32.8 | 26.9
19 | Clc1cc2c(c(CSC3=NCN(CC4CC4)CN3)c1)OCOC2 | 63.1 | > 100 | 48.9 | 32.2 | 98.3 | 33.1 | 42.8 | > 100 | > 100 | 39.6 | 28.4 | 48

Row | SMILES | TGI (HT29 colon) [µM] | TGI (DU-145 prostate) [µM] | TGI (NCI-H226 lung) [µM] | TGI (SK-MEL-5 melanoma) [µM] | TGI (SF-268 CNS) [µM] | TGI (UACC-257 melanoma) [µM] | TGI (HCT-116 colon) [µM] | TGI (HS 578T breast) [µM] | TGI (HCT-15 colon) [µM] | TGI (SNB-75 CNS) [µM] | TGI (COLO 205 colon) [µM] | TGI (MDA-MB-231 breast) [µM]
20 | CC(C(=O)ON1C(=O)CCC1=O)c1ccc(C(=O)c2ccccc2)s1 (stereo not drawn) | > 100 | > 100 | > 100 | > 100 | > 100 | > 100 | > 100 | > 100 | > 100 | > 100 | > 100 | > 100
21 | Cc1ccc(OCC2OC(n3cnc4nc(Cl)nc(Cl)c43)CC2Oc2ccc(C)cc2)cc1 (stereo not drawn) | 20.4 | 27.2 | 36.3 | 30.8 | 23.4 | 29.6 | 17.9 | 54.6 | 6.33 | 28.5 | 27.6 | 6.56
22 | COC1=C(N=[N+]=[N-])C(=O)c2ncccc2C1=O | 33 | 35.1 | 35.9 | 23.4 | 28.5 | 13 | 6.57 | 48.6 | 20.4 | 26 | 6.35 | 25
23 | O=C(Nc1cccc(C(F)(F)F)c1)O/N=C(/Cl)CCl | > 100 | > 100 | – | > 100 | > 100 | > 100 | > 100 | > 100 | > 100 | > 100 | > 100 | 39
24 | N#Cc1c(SCc2ccccc2)nc(-c2ccccc2)[nH]c1=S | 60.1 | > 100 | 70.3 | 54.8 | 57 | > 100 | 51.8 | 92 | 50.4 | 47.1 | 48.8 | > 100
25 | NC(=O)c1nnc2cc(F)ccc2c1N | > 100 | > 100 | > 100 | > 100 | > 100 | > 100 | > 100 | > 100 | > 100 | > 100 | > 100 | > 100
26 | C=CCOCn1cnc2c(N)ncnc21 | > 100 | > 100 | > 100 | > 100 | > 100 | > 100 | > 100 | > 100 | > 100 | > 100 | > 100 | > 100
27 | CC(=O)N1CCc2c([nH]c3ccc(Br)cc23)C1c1ccccc1 (stereo not drawn) | > 10 | > 10 | > 10 | > 10 | > 10 | > 10 | > 10 | > 10 | > 10 | > 10 | > 10 | > 10
28 | CCOc1cc(NC(C)=O)ccc1C(=O)NN1C(=O)C(Oc2ccccc2)C1c1ccccc1 (stereo not drawn) | > 100 | > 100 | > 100 | > 100 | > 100 | > 100 | > 100 | > 100 | > 100 | > 100 | > 100 | > 100
29 | [Se]=P(c1ccccc1)(c1ccccc1)c1ccc(C(c2ccccc2)=P(c2ccccc2)(c2ccccc2)c2ccccc2)cc1 | 2.17 | 14.5 | 11.5 | 1.64 | 9.26 | 5.59 | 4.7 | 5.24 | 18.8 | 3.49 | 0.659 | 7.33
30 | ClC(Cl)(Cl)C1=N[C@H]2[C@H](Br)[C@@H]3O[C@@H](c4ccccc4)[C@H](c4ccccc4)O[C@@H]3[C@H]2O1 | 58.1 | 73.7 | 35.5 | 31.2 | 37.2 | 37.3 | 39 | 63.7 | 67.3 | 44 | 30 | 50.1
31 | Clc1nc(Cl)c(Cl)c(Cl)n1 | 52.6 | 31.7 | 42.8 | 32.2 | 56.9 | 31.1 | 38.2 | 53.7 | 38.1 | 33.8 | 24.1 | 41.3
32 | Cc1cc(-c2[nH]c(C(=O)O)cc2I)on1 | > 100 | > 100 | – | > 100 | > 100 | > 100 | > 100 | > 100 | > 100 | > 100 | > 100 | > 100
33 | CCOC(=O)Nc1c(C#N)[n+]([O-])c2cc(Cl)c(Cl)cc2[n+]1[O-] | 37.3 | > 100 | 42.9 | 24.9 | 34.3 | 36.1 | 59.3 | > 100 | 25.8 | 41.8 | 30.3 | 35.8
34 | C=CCOc1ccccc1N=N/C(C#N)=N\Nc1ccccc1OCC=C | > 100 | > 100 | > 100 | > 100 | > 100 | > 100 | > 100 | > 100 | > 100 | > 100 | > 100 | > 100
35 | CN(C)c1nc(NC23CC4CC(CC(C4)C2)C3)nc(N(C)C)n1 | > 100 | > 100 | > 77.6 | 24.8 | > 100 | > 100 | > 57.1 | 56 | 41.2 | > 55.2 | > 49.6 | > 57
36 | COC(=O)C(CCc1ccccc1I)C1=CCC2(CC1)OCCO2 (stereo not drawn) | > 100 | > 100 | > 100 | 40 | > 100 | > 100 | – | > 100 | > 100 | > 100 | > 100 | > 100
37 | CN1C(=S)C(c2ccccc2)Sc2ccccc21 (stereo not drawn) | – | > 100 | > 100 | > 100 | > 100 | > 100 | > 100 | > 100 | > 100 | > 100 | > 100 | > 100
